What follows are molecules tested on GT-1a pRLuc H771b 75 S/I subgenomic replicon cell line (assay: HCV GT-1a replicon luciferase reporter assay). Conditions: Hepatitis C virus, GT1A, 72 h, read-out: GT-1a (IC50) (nM).
Type: cell-based
Excerpt: Determination of compounds HCV GT1b inhibitory replicon activity using the replicon luciferase reporter assay
The 2209-23 cell line was developed at Roche by stable transfection of the hepatoma cell line Huh-7 with a GT-1b Con1 subgenomic bicistronic replicon as previously described. Subgenomic replicon cell line was established in cured Huh7 cells, obtained from R. Bartenschlager (J. Virol. 2003 March; 77 (5):3007-19) The GT-1a H77 subgenomic replicon vector pRLuc H771b 75 S/I, was created by replacing the non structural region of the GT-1b Con1 subgenomic replicon by the one of the H77 strain, except for the first 75 amino acids of the NS3 protein that are from GT-1b Con1 strain. (J. Virol. 2001 77:5352-59) The GT-1a pRLuc H771b 75 S/I subgenomic replicon cell line was established in cured Huh7 cells, obtained from R. Bartenschlager. (J. Virol. 2003 March; 77 (5):3007-19)
All the subgenomic replicon cell lines were cultured in Dulbecco's Modified Eagle Medium (DMEM-Glutamax™-I; Invitrogen Cat #10569-010). The medium was supplemented with 10% Fetal Bovine Serum (Invitrogen Cat #10082-147), 1% penicillin/streptomycin (Mediatech Cat #30-002-CI) and 500 μg/ml of G418 (Mediatech Cat #30-234-CI). Cells were maintained at 37° C. in a humidified 5% CO2 atmosphere.
2209-23 cells were plated at a cell density of 5000 cells per well in 96 well plates (Becton Dickinson, Cat #35 3296). Cells were plated in 90 μl of Dulbecco's Modified Eagle Medium (DMEM-Glutamax™-I), (Invitrogen Cat #10569-010) medium was supplemented with 5% Fetal Bovine Serum (Invitrogen Cat #10082-147), 1% penicillin/streptomycin (Mediatech Cat #30-002-CI). The pRluc H771b 75 S/I cells were plated in 96-well plate at 3000 cells/well in DMEM-Glutamax™-I containing 5% FBS and 1% penicillin/streptomycin in 90 μl final volume. Cells were allowed to equilibrate for 24 hours at 37° C. and 5% CO2 at which time compounds were added. Compounds (or medium as a control) were added 24 hours post-plating in 3 fold dilutions at a final DMSO concentration of 1% in 10 ul volume. Renilla luciferase reporter signal was read 72 hours after addition of compounds using the Renilla Luciferase Assay System (Promega, cat #E2820). EC50 values were defined as the compound concentration at which a 50% reduction in the levels of renilla luciferase reporter was observed as compared to control samples in the absence of compound and was determined by non-linear fitting of compound dose-response data. The EC50 was approximated if maximum percentage inhibition was less than 90% and more than 70%.

| Compound | IC50 [nM] |
| --- | --- |
| COC(=O)NC(C(=O)N1CCCC1c1ncc(-c2ccc(-c3ccc(-c4cnc([C@@H]5Cc6cc(C#N)cc7c6N5C(=O)[C@@H](NC(=O)OC)CC7)[nH]4)cc3)cc2)[nH]1)C(C)C (stereo in doubt) [Compound I-26, {(2S,5S)-9-Cyano-2-[5-(4′-{2-[(R)-1-((R)-2-methoxycarbonylamino-3-methyl-butyryl)-pyrrolidin-2-yl]-3H-imidazol-4-yl}-biphenyl-4-yl)-1H-imidazol-2-yl]-4-oxo-1,2,4,5,6,7-hexahydro-azepino[3,2,1-hi]indol-5-yl}-carbamic acid methyl ester] | 7.71 |
| COC(=O)N[C@H]1CCc2cccc3c2N(C1=O)[C@H](c1ncc(-c2ccc(-c4ccc(-c5cnc([C@@H]6CCCN6C(=O)[C@@H](NC(=O)OC)[C@@H](C)O)[nH]5)cc4)cc2)[nH]1)C3 (stereo in doubt) [Compound I-50, {(2S,5S)-2-[5-(4-{2-[(S)-1-((S)-3-Hydroxy-2-methoxycarbonylamino-butyl)-pyrolidin-2-yl]-3H-imidazol-4-yl}-biphenyl-4-yl)-1H-imidazol-2-yl]-4-oxo-1,2,4,5,6,7-hexahydro-azepino[3,2,1-hi]indol-5-yl}-carbamic acid methyl ester] | 6.62 |
| COC(=O)NC(C(=O)N1CCOC[C@H]1c1ncc(-c2ccc(-c3ccc(-c4cnc([C@@H]5Cc6cccc7c6N5C(=O)[C@@H](NC(=O)OC)CC7)[nH]4)cc3)cc2)[nH]1)c1ccccc1 (stereo in doubt) [Compound I-63, {(2S,5S)-2-[5-(4′-{2-[(R)-4-((S)-2-Methoxycarbonylamino-2-phenyl-acetyl)-morpholin-3-yl]-3H-imidazol-4-yl}-biphenyl-4-yl)-1H-imidazol-2-yl]-4-oxo-1,2,4,5,6,7-hexahydro-azepino[3,2,1-hi]indol-5-yl}-carbamic acid methyl ester] | 7.3 |
| COC(=O)N[C@H]1CCc2cccc3c2N(C1=O)[C@H](c1ncc(-c2ccc(-c4ccc(-c5cnc([C@@H]6C[C@H](F)CN6C(=O)[C@@H](NC(=O)OC)C(C)C)[nH]5)cc4)cc2)[nH]1)C3 [Compound I-1, {(2S,5S)-2-[5-(4′-{2-[(2S,4S)-4-Fluoro-1-((S)-2-methoxycarbonylamino-3-methyl-butyryl)-pyrrolidin-2-yl]-3H-imidazol-4-yl}biphenyl-4-yl)-1H-imidazol-2-yl]-4-oxo-1,2,4,5,6,7-hexahydro-azepino[3,2,1-hi]indol-5-yl}-carbamic acid methyl ester] | 6.33 |
| COC(=O)N[C@H]1CCc2cccc3c2N(C1=O)[C@H](c1ncc(-c2ccc(-c4ccc(-c5cnc([C@@H]6C[C@@H](F)CN6C(=O)[C@@H](NC(=O)OC)C(C)C)[nH]5)cc4)cc2)[nH]1)C3 [Compound I-2, {(2S,5S)-2-[5-(4′-{2-[(2S,4R)-4-Fluoro-1-((S)-2-methoxycarbonylamino-3-methyl-butyryl)-pyrrolidin-2-yl]-3H-imidazol-4-yl}-biphenyl-4-yl)-1H-imidazol-2-yl]-4-oxo-1,2,4,5,6,7-hexahydro-azepino[3,2,1-hi]indol-5-yl}-carbamic acid methyl ester] | 18.5 |
| COC(=O)N[C@H]1CCc2cccc3c2N(C1=O)[C@H](c1ncc(-c2ccc(-c4ccc5nc([C@@H]6CCCN6C(=O)[C@@H](NC(=O)OC)C(C)C)[nH]c5c4)cc2)[nH]1)C3 [Compound I-3, {(2S,5S)-2-[5-(4-{2-[(S)-1-((S)-2-Methoxycarbonylamino-3-methyl-butyryl)-pyrrolidin-2-yl]-3H-benzoimidazol-5-yl}-phenyl)-1H-imidazol-2-yl]-4-oxo-1,2,4,5,6,7-hexahydro-azepino[3,2,1-hi]indol-5-yl}-carbamic acid methyl ester] | 660 |
| COC(=O)N[C@H]1CCc2cccc3c2N(C1=O)[C@H](c1ncc(-c2ccc(-c4ccc(-c5ccc6nc([C@@H]7CC(F)(F)CN7C(=O)[C@@H](NC(=O)OC)C(C)C)[nH]c6c5)cc4)cc2)[nH]1)C3 [Compound I-4, {(2S,5S)-2-[5-(4′-{2-[(S)-4,4-Difluoro-1-((S)-2-methoxycarbonylamino-3-methyl-butyryl)-pyrrolidin-2-yl]-3H-benzoimidazol-5-yl}-biphenyl-4-yl)-1H-imidazol-2-yl]-4-oxo-1,2,4,5,6,7-hexahydro-azepino[3,2,1-hi]indol-5-yl}-carbamic acid methyl ester] | 4.11 |
| COC(=O)N[C@H]1CCc2cccc3c2N(C1=O)[C@H](c1ncc(-c2ccc(-c4ccc(-c5ccc6nc([C@@H]7CCCN7C(=O)[C@@H](NC(=O)OC)C(C)C)[nH]c6c5)nc4)cc2)[nH]1)C3 [Compound I-7, ((2S,5S)-2-{5-[4-(6-{2-[(S)-1-((S)-2-Methoxycarbonylamino-3-methyl-butyryl)-pyrrolidin-2-yl]-3H-benzoimidazol-5-yl}-pyridin-3-yl)-phenyl]-1H-imidazol-2-yl}-4-oxo-1,2,4,5,6,7-hexahydro-azepino[3,2,1-hi]indol-5-yl)-carbamic acid methyl ester] | 32.2 |
| COC(=O)N[C@H]1CCc2cccc3c2N(C1=O)[C@H](c1ncc(-c2ccc(-c4ccc(-c5cnc([C@@H]6CC7(CN6C(=O)[C@@H](NC(=O)OC)C(C)C)OCCO7)[nH]5)cc4)cc2)[nH]1)C3 [Compound I-8, {(2S,5S)-2-[5-(4′-{2-[(S)-7-((S)-2-Methoxycarbonylamino-3-methyl-butyryl)-1,4-dioxa-7-aza-spiro[4.4]non-8-yl]-3H-imidazol-4-yl}-biphenyl-4-yl)-1H-imidazol-2-yl]-4-oxo-1,2,4,5,6,7-hexahydro-azepino[3,2,1-hi]indol-5-yl}-carbamic acid methyl Ester] | 2.54 |
| COC(=O)N[C@H]1CCc2cccc3c2N(C1=O)[C@H](c1nc2ccc(-c4ccc(-c5ccc(-c6cnc([C@@H]7CCCN7C(=O)[C@@H](NC(=O)OC)C(C)C)[nH]6)cc5)nc4)cc2[nH]1)C3 [Compound I-12, ((2S,5S)-2-{6-[6-(4-{2-[(S)-1-((S)-2-Methoxycarbonylamino-3-methyl-butyryl)-pyrrolidin-2-yl]-3H-imidazol-4-yl}-phenyl)-pyridin-3-yl]-1H-benzoimidazol-2-yl}-4-oxo-1,2,4,5,6,7-hexahydro-azepino[3,2,1-hi]indol-5-yl)-carbamic acid methyl ester] | 18.6 |
| COC(=O)N[C@H]1CCc2cccc3c2N(C1=O)[C@H](c1nc2ccc(-c4ccc(-c5ccc(-c6cnc([C@@H]7CC(F)(F)CN7C(=O)[C@@H](NC(=O)OC)C(C)C)[nH]6)cc5)nc4)cc2[nH]1)C3 [Compound I-13, ((2S,5S)-2-{6-[6-(4-{2-[(S)-1-((S)-2-Methoxycarbonylamino-3-methyl-butyryl)-4,4-difluoro-pyrrolidin-2-yl]-3H-imidazol-4-yl}-phenyl)-pyridin-3-yl]-1H-benzoimidazol-2-yl}-4-oxo-1,2,4,5,6,7-hexahydro-azepino[3,2,1-hi]indol-5-yl)-carbamic acid methyl ester] | 41.8 |
| COC(=O)N[C@H]1CCc2cccc3c2N(C1=O)[C@H](c1ncc(-c2cnc(-c4ccc(-c5cnc([C@@H]6CCCN6C(=O)[C@@H](NC(=O)OC)C(C)C)[nH]5)cc4)nc2)[nH]1)C3 [Compound I-15, ((2S,5S)-2-{5-[2-(4-{2-[(S)-1-((S)-2-Methoxycarbonylamino-3-methyl-butyryl)-pyrrolidin-2-yl]-3H-imidazol-4-yl}-phenyl)-pyrimidin-5-yl]-1H-imidazol-2-yl}-4-oxo-1,2,4,5,6,7-hexahydro-azepino[3,2,1-hi]indol-5-yl)-carbamic acid methyl ester] | 13.4 |
| COC(=O)N[C@H]1CCc2cccc3c2N(C1=O)[C@H](c1ncc(-c2cnc(-c4ccc(-c5cnc([C@@H]6CC(F)(F)CN6C(=O)[C@@H](NC(=O)OC)C(C)C)[nH]5)cc4)nc2)[nH]1)C3 [Compound I-16, ((2S,5S)-2-{5-[2-(4-{2-[(S)-1-((S)-2-Methoxycarbonylamino-3-methyl-butyryl)-4,4-difluoro-pyrrolidin-2-yl]-3H-imidazol-4-yl}-phenyl)-pyrimidin-5-yl]-1H-imidazol-2-yl}-4-oxo-1,2,4,5,6,7-hexahydro-azepino[3,2,1-hi]indol-5-yl)-carbamic acid methyl ester] | 29.2 |
